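Grown in 96-well plates, cells were treated for 48 hours with each compound at five concentrations. Insufficient inhibition: endpoint recorded as highest concentration tested. The concentration for 50% growth inhibition is given as GI50. At the TGI there is no net growth.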
Key:
Test in all cases: DTP human tumour cell line panel, 48 h
SK-OV-3 ovarian = system: SK-OV-3 ovarian
OVCAR-8 ovarian = system: OVCAR-8 ovarian
SR leukemia = system: SR leukemia
SK-MEL-28 melanoma = system: SK-MEL-28 melanoma
OVCAR-4 ovarian = system: OVCAR-4 ovarian
HT29 colon = system: HT29 colon
NCI/ADR-RES ovarian = system: NCI/ADR-RES ovarian
SN12C renal = system: SN12C renal
HL-60(TB) leukemia = system: HL-60(TB) leukemia
EKVX NSCLC = system: EKVX NSCLC
CAKI-1 renal = system: CAKI-1 renal
A549 NSCLC = system: A549 NSCLC
MOLT-4 leukemia = system: MOLT-4 leukemia
T-47D breast = system: T-47D breast
KM12 colon = system: KM12 colon
IGROV1 ovarian = system: IGROV1 ovarian
UACC-257 melanoma = system: UACC-257 melanoma
PC-3 prostate = system: PC-3 prostate
HCT-15 colon = system: HCT-15 colon
UO-31 renal = system: UO-31 renal
SW-620 colon = system: SW-620 colon
MALME-3M melanoma = system: MALME-3M melanoma
HS 578T breast = system: HS 578T breast
MCF7 breast = system: MCF7 breast
SF-268 CNS = system: SF-268 CNS
RPMI-8226 leukemia = system: RPMI-8226 leukemia
HCC-2998 colon = system: HCC-2998 colon
HOP-92 NSCLC = system: HOP-92 NSCLC
CCRF-CEM leukemia = system: CCRF-CEM leukemia
BT-549 breast = system: BT-549 breast
U251 CNS = system: U251 CNS
HOP-62 NSCLC = system: HOP-62 NSCLC
SNB-75 CNS = system: SNB-75 CNS
NCI-H23 lung = system: NCI-H23 lung
NCI-H522 lung = system: NCI-H522 lung
SK-MEL-2 melanoma = system: SK-MEL-2 melanoma
786-0 renal = system: 786-0 renal
NCI-H460 lung = system: NCI-H460 lung
M14 melanoma = system: M14 melanoma
HCT-116 colon = system: HCT-116 colon
DU-145 prostate = system: DU-145 prostate
OVCAR-3 ovarian = system: OVCAR-3 ovarian
SNB-19 CNS = system: SNB-19 CNS
COLO 205 colon = system: COLO 205 colon
UACC-62 melanoma = system: UACC-62 melanoma
SF-539 CNS = system: SF-539 CNS
ACHN renal = system: ACHN renal
MDA-MB-435 = system: MDA-MB-435
TK-10 renal = system: TK-10 renal
MDA-MB-231 breast = system: MDA-MB-231 breast
RXF 393 renal = system: RXF 393 renal
SK-MEL-5 melanoma = system: SK-MEL-5 melanoma
K-562 leukemia = system: K-562 leukemia
LOX IMVI melanoma = system: LOX IMVI melanoma
OVCAR-5 ovarian = system: OVCAR-5 ovarian
SF-295 CNS = system: SF-295 CNS
A498 renal = system: A498 renal
NCI-H226 lung = system: NCI-H226 lung

C/C=C(\C)C(=O)O[C@H]1C=CC(=O)O[C@H]1CC[C@H](O)[C@H](C)O
GI50 (SK-OV-3 ovarian): 16.2 µM
TGI (SK-OV-3 ovarian): 31 µM
GI50 (OVCAR-8 ovarian): 12.8 µM
TGI (OVCAR-8 ovarian): 30.7 µM
GI50 (SR leukemia): 15.1 µM
TGI (SR leukemia): 45.7 µM
GI50 (SK-MEL-28 melanoma): 2.85 µM
TGI (SK-MEL-28 melanoma): 8.05 µM
GI50 (OVCAR-4 ovarian): 6.42 µM
TGI (OVCAR-4 ovarian): 20.7 µM
GI50 (HT29 colon): 2.38 µM
TGI (HT29 colon): 6.65 µM
GI50 (NCI/ADR-RES ovarian): 15.3 µM
TGI (NCI/ADR-RES ovarian): 34 µM
GI50 (SN12C renal): 8.06 µM
TGI (SN12C renal): 25.3 µM
GI50 (HL-60(TB) leukemia): 0.469 µM
TGI (HL-60(TB) leukemia): 4.77 µM
GI50 (EKVX NSCLC): 15.8 µM
TGI (EKVX NSCLC): 30.5 µM
GI50 (CAKI-1 renal): 7.12 µM
TGI (CAKI-1 renal): 13.1 µM
GI50 (A549 NSCLC): 18 µM
TGI (A549 NSCLC): 36.3 µM
GI50 (MOLT-4 leukemia): 0.522 µM
TGI (MOLT-4 leukemia): 5.59 µM
GI50 (T-47D breast): 2.34 µM
TGI (T-47D breast): 10.8 µM
GI50 (KM12 colon): 12.4 µM
TGI (KM12 colon): 29.1 µM
GI50 (IGROV1 ovarian): 4.17 µM
TGI (IGROV1 ovarian): 19 µM
GI50 (UACC-257 melanoma): 16.4 µM
TGI (UACC-257 melanoma): 34.2 µM
GI50 (PC-3 prostate): 8.46 µM
TGI (PC-3 prostate): 22.7 µM
GI50 (HCT-15 colon): 3.41 µM
TGI (HCT-15 colon): 12.7 µM
GI50 (UO-31 renal): 9.06 µM
TGI (UO-31 renal): 23.5 µM
GI50 (SW-620 colon): 2.64 µM
TGI (SW-620 colon): 6.08 µM
GI50 (MALME-3M melanoma): 4.62 µM
TGI (MALME-3M melanoma): 16.1 µM
GI50 (HS 578T breast): 6.8 µM
TGI (HS 578T breast): 18.1 µM
GI50 (MCF7 breast): 2.45 µM
TGI (MCF7 breast): 11.3 µM
GI50 (SF-268 CNS): 2.83 µM
TGI (SF-268 CNS): 12.3 µM
GI50 (RPMI-8226 leukemia): 2.22 µM
TGI (RPMI-8226 leukemia): 7.54 µM
GI50 (HCC-2998 colon): 12.3 µM
TGI (HCC-2998 colon): 26.3 µM
GI50 (HOP-92 NSCLC): 6.3 µM
TGI (HOP-92 NSCLC): 16.1 µM
TGI (CCRF-CEM leukemia): 0.335 µM
GI50 (BT-549 breast): 6.14 µM
TGI (BT-549 breast): 19.9 µM
GI50 (U251 CNS): 4.64 µM
TGI (U251 CNS): 17.4 µM
GI50 (HOP-62 NSCLC): 15.3 µM
TGI (HOP-62 NSCLC): 29.7 µM
GI50 (SNB-75 CNS): 8.98 µM
TGI (SNB-75 CNS): 22.7 µM
GI50 (NCI-H23 lung): 15.7 µM
TGI (NCI-H23 lung): 34.2 µM
GI50 (NCI-H522 lung): 2.05 µM
TGI (NCI-H522 lung): 6.13 µM
GI50 (SK-MEL-2 melanoma): 8.41 µM
TGI (SK-MEL-2 melanoma): 27.9 µM
GI50 (786-0 renal): 5.46 µM
TGI (786-0 renal): 12.8 µM
GI50 (NCI-H460 lung): 11.6 µM
TGI (NCI-H460 lung): 25.4 µM
GI50 (M14 melanoma): 6.82 µM
TGI (M14 melanoma): 21.9 µM
GI50 (HCT-116 colon): 1.38 µM
TGI (HCT-116 colon): 2.82 µM
GI50 (DU-145 prostate): 13.8 µM
TGI (DU-145 prostate): 27 µM
GI50 (OVCAR-3 ovarian): 3.06 µM
TGI (OVCAR-3 ovarian): 8.79 µM
GI50 (SNB-19 CNS): 12.3 µM
TGI (SNB-19 CNS): 26.4 µM
GI50 (COLO 205 colon): 3.22 µM
TGI (COLO 205 colon): 10.1 µM
GI50 (UACC-62 melanoma): 6.42 µM
TGI (UACC-62 melanoma): 17.3 µM
GI50 (SF-539 CNS): 13.3 µM
TGI (SF-539 CNS): 27.1 µM
GI50 (ACHN renal): 6.42 µM
TGI (ACHN renal): 19.7 µM
GI50 (MDA-MB-435): 3.43 µM
TGI (MDA-MB-435): 12.7 µM
GI50 (TK-10 renal): 9.78 µM
TGI (TK-10 renal): 23.9 µM
GI50 (MDA-MB-231 breast): 12.8 µM
TGI (MDA-MB-231 breast): 28.3 µM
GI50 (RXF 393 renal): 2 µM
TGI (RXF 393 renal): 5.4 µM
GI50 (SK-MEL-5 melanoma): 5.13 µM
TGI (SK-MEL-5 melanoma): 11 µM
GI50 (K-562 leukemia): 2.3 µM
TGI (K-562 leukemia): 8.72 µM
GI50 (LOX IMVI melanoma): 2.24 µM
TGI (LOX IMVI melanoma): 5.66 µM
GI50 (OVCAR-5 ovarian): 16.9 µM
TGI (OVCAR-5 ovarian): 32.1 µM
GI50 (SF-295 CNS): 13 µM
TGI (SF-295 CNS): 26.5 µM
GI50 (A498 renal): 16.4 µM
TGI (A498 renal): 30.3 µM
GI50 (NCI-H226 lung): 4.14 µM
TGI (NCI-H226 lung): 16.6 µM

Reference: PubChem BioAssay (NCI)
